Assay results published in patent US20240226228A1, “ANTIMICROBIAL PEPTOID HAVING IMPROVED SELECTIVITY AND ANTIMICROBIAL COMPOSITION COMPRISING SAME” (priority 2021, published 2024).
Values after ≈ are worked out from the molar mass of the structure shown. Like-named read-outs stand apart in the source and are kept apart here. *1 amine or outer side, *2 acyl side, *3 side chain or, on linkers, in order; H or OH if unused. Where a SMILES comes first, the peptide text is derived from it. [ ]: non-standard residue; d: D form. Gly(N(CH2)2(3-indolyl)) = O=C(O)CNCCc1c[nH]c2ccccc12; Gly(N-CH2CH2-imidazol-4-yl) = O=C(O)CNCCc1c[nH]cn1; Nspe = C[C@H](NCC(=O)O)c1ccccc1; X1 = O=C(CN(CCCCO)[*:1])[*:2]; Nphe = O=C(O)CNCc1ccccc1; Nlys = NCCCCNCC(=O)O

Tests used:
red blood cells = assay: Hemolysis assay; assay type: cell-based, Sprague-Dawley mouse
In short: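 Peptoid is mixed with 10% (v/v) PBS-washed erythrocytes (male Sprague-Dawley […], 13 weeks) and held 1 h at 37 °C. Hemolysis is calculated from 540 nm absorbance of the supernatant, with PBS as 0% and Triton X-100 as 100%.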

S. aureus ATCC 25923 = test system: S. aureus ATCC 25923
Description: (§1) To measure the antimicrobial activity of the peptoids synthesized in Example 1, an E. coli ATCC25922 strain as gram-negative bacteria and an S. aureus KCTC25923 strain as gram-positive bacteris, were treated with the peptoids, followed by measuring the minimum inhibitory concentration (MIC). Peptoids 1 and 2 are antimicrobial peptoids known in the art, and used as controls for comparing antimicrobial activity with a novel peptoid.
(§2) Specifically, the S. aureus KCTC25923 or E. coli ATCC25922 strain was inoculated into a Mueller Hinton Broth (MHB2) liquid medium in which cations had been adjusted in the medium, cultured at 37° C. for 18 hours, subcultured, and then incubated for 4 hours. Afterward, for each bacterial strain, an optical density (OD, 0.001) was adjusted so that the bacterial count became 2×10^5 to 5×10^5 colony-forming units (CFU) per mL, which was then diluted with a MHB2 liquid medium containing 0.02% bovine serum albumin and 0.001% acetic acid, and dispensed at 100 μL into a 96-well microplate. Using sterile water, a peptoid stock 40 times stronger than a concentration to be tested was subjected to two-fold serial dilution and assessed at six different concentrations, and the maximum value of the peptoid concentrations was 25 μM. Subsequently, the plate was incubated at 37° C. for 24 hours. Afterward, optical density (OD) values at 600 nm were measured using a microplate reader (Bio-Rad).
(§3) Each MIC value was determined as the average value of a value obtained through three independent experiments.
(§4) Referring to Table 22, to measure the antimicrobial activity of the peptoids synthesized in Example 3, an MIC was measured by treating gram-negative bacteria, that is, the E. coli ATCC25922 strain, and gram-positive bacteria, that is, the S. aureus ATCC25923 strain, with the peptoids. Here, Peptoid 1 is a conventionally known antimicrobial peptoid, and Omiganan is a derivative of indolicidin, which is an antimicrobial peptide, under clinical development, and was used as a control for comparing antimicrobial activity with the novel peptoid.

E. coli ATCC25922 = test system: E. coli ATCC25922
Description: as §1, §2, §3, §4

[1] = Tables 11-13, 24 hours at 37° C., maximum concentration 25 μM
[2] = Table 18, TFA salt vs counter ion-substituted (HCl, AcOH) peptoids

MIC S. aureus ATCC 25923 (S. aureus ATCC 25923; ATCC 25923) | MIC E. coli ATCC25922 (E. coli ATCC25922; ATCC25922) | SMILES | HC10 (red blood cells) | HC50 (red blood cells) | Hmax (100 μM) (red blood cells) | MIC S. aureus ATCC 25923 (S. aureus ATCC 25923; [1]) | MIC E. coli ATCC25922 (E. coli ATCC25922; [1]) | MIC S. aureus ATCC 25923 (S. aureus ATCC 25923; [2]) | MIC E. coli ATCC25922 (E. coli ATCC25922; [2])
 |  | NCCCCNCC(=O)N(CC(=O)N(CC(=O)N(CCCCN)CC(=O)N(CC(=O)N(CC(=O)N(CCCCN)CC(=O)N(CC(=O)N(CC(=O)N(CCCCN)CC(=O)N(CC(=O)N(CC(N)=O)Cc1ccccc1)Cc1ccccc1)Cc1ccccc1)Cc1ccccc1)Cc1ccccc1)Cc1ccccc1)Cc1ccccc1)Cc1ccccc1 [Peptoid 2] (H-[Nlys][Nphe][Nphe][Nlys][Nphe][Nphe][Nlys][Nphe][Nphe][Nlys][Nphe][Nphe]-NH2) | 20.4 µM | > 100.0 µM | 17.7 ± 1.1% | 3.1 µM (≈ 5.29 µg/mL) | 12.5 µM (≈ 21.3 µg/mL) |  | 
 |  | C[C@@H](c1ccccc1)N(CC(=O)N(CCc1c[nH]c2ccccc12)CC(N)=O)C(=O)CN(CCCCN)C(=O)CN(C(=O)CN(C(=O)CN(CCCCN)C(=O)CN(C(=O)CN(C(=O)CN(CCCCN)C(=O)CN(C(=O)CN(C(=O)CNCCCCN)[C@@H](C)c1ccccc1)[C@@H](C)c1ccccc1)[C@@H](C)c1ccccc1)[C@@H](C)c1ccccc1)[C@@H](C)c1ccccc1)[C@@H](C)c1ccccc1 [Peptoid 7] (H-[Nlys][Nspe][Nspe][Nlys][Nspe][Nspe][Nlys][Nspe][Nspe][Nlys][Nspe][Gly(N(CH2)2(3-indolyl))]-NH2) | 7.8 µM | 23.8 µM | 94.1 ± 4.3% | 3.1 µM (≈ 5.76 µg/mL) | 6.3 µM (≈ 11.7 µg/mL) |  | 
 |  | C[C@@H](c1ccccc1)N(CC(N)=O)C(=O)CN(C(=O)CN(CCCCN)C(=O)CN(C(=O)CN(C(=O)CN(CCCCN)C(=O)CN(CCc1c[nH]c2ccccc12)C(=O)CN(C(=O)CN(CCCCN)C(=O)CN(C(=O)CN(C(=O)CNCCCCN)[C@@H](C)c1ccccc1)[C@@H](C)c1ccccc1)[C@@H](C)c1ccccc1)[C@@H](C)c1ccccc1)[C@@H](C)c1ccccc1)[C@@H](C)c1ccccc1 [Peptoid 9] | 10.6 µM | 31.9 µM | 106.4 ± 0.6% | 1.6 µM (≈ 2.97 µg/mL) | 3.1 µM (≈ 5.76 µg/mL) |  | 
 |  | C[C@@H](c1ccccc1)N(CC(N)=O)C(=O)CN(C(=O)CN(CCCCN)C(=O)CN(C(=O)CN(C(=O)CN(CCCCN)C(=O)CN(C(=O)CN(C(=O)CN(CCCCN)C(=O)CN(CCc1c[nH]c2ccccc12)C(=O)CN(C(=O)CNCCCCN)[C@@H](C)c1ccccc1)[C@@H](C)c1ccccc1)[C@@H](C)c1ccccc1)[C@@H](C)c1ccccc1)[C@@H](C)c1ccccc1)[C@@H](C)c1ccccc1 [Peptoid 10-1] | 15.3 µM | 37.8 µM | 81.5 ± 7.4% |  |  | 3.1 µM | 6.3 µM
 |  | C[C@@H](c1ccccc1)N(CC(N)=O)C(=O)CN(C(=O)CN(CCCCN)C(=O)CN(C(=O)CN(C(=O)CN(CCCCN)C(=O)CN(C(=O)CN(C(=O)CN(CCCCN)C(=O)CN(CCc1c[nH]c2ccccc12)C(=O)CN(C(=O)CNCCCCN)[C@@H](C)c1ccccc1)[C@@H](C)c1ccccc1)[C@@H](C)c1ccccc1)[C@@H](C)c1ccccc1)[C@@H](C)c1ccccc1)[C@@H](C)c1ccccc1 [Peptoid 10-2] | 14.1 µM | 29.4 µM | 102.3 ± 11.3% |  |  | 1.6 µM | 6.3 µM
 |  | NC(=O)CN(CCc1c[nH]c2ccccc12)C(=O)CN(CCc1c[nH]c2ccccc12)C(=O)CN(CCCCO)C(=O)CN(CCc1c[nH]c2ccccc12)C(=O)CN(CCc1c[nH]c2ccccc12)C(=O)CN(CCCCO)C(=O)CN(CCc1c[nH]c2ccccc12)C(=O)CN(CCc1c[nH]c2ccccc12)C(=O)CN(CCCCO)C(=O)CN(CCc1c[nH]c2ccccc12)C(=O)CN(CCc1c[nH]c2ccccc12)C(=O)CNCCCCO [Peptoid 65] (H-[X1][Gly(N(CH2)2(3-indolyl))][Gly(N(CH2)2(3-indolyl))][X1][Gly(N(CH2)2(3-indolyl))][Gly(N(CH2)2(3-indolyl))][X1][Gly(N(CH2)2(3-indolyl))][Gly(N(CH2)2(3-indolyl))][X1][Gly(N(CH2)2(3-indolyl))][Gly(N(CH2)2(3-indolyl))]-NH2) |  |  |  | >25 µM | >25 µM |  | 
 |  | C[C@@H](c1ccccc1)N(CC(=O)N(CCCCO)CC(=O)N(CCc1c[nH]c2ccccc12)CC(=O)N(CCc1c[nH]c2ccccc12)CC(N)=O)C(=O)CN(CCCCO)C(=O)CN(CCCCO)C(=O)CN(C(=O)CN(C(=O)CN(CCCCO)C(=O)CN(C(=O)CN(C(=O)CNCCCCO)[C@@H](C)c1ccccc1)[C@@H](C)c1ccccc1)[C@@H](C)c1ccccc1)[C@@H](C)c1ccccc1 [Peptoid 66] |  |  |  | >25 µM | >25 µM |  | 
25 µM (≈ 46.4 µg/mL) | >25 µM | C[C@@H](c1ccccc1)N(CC(N)=O)C(=O)CN(CCCCN)C(=O)CN(CCCCN)C(=O)CN(C(=O)CN(C(=O)CN(CCCCN)C(=O)CN(C(=O)CN(CCc1c[nH]cn1)C(=O)CN(CCCCN)C(=O)CN(CCc1c[nH]c2ccccc12)C(=O)CN(CCc1c[nH]c2ccccc12)C(=O)CNCCCCN)[C@@H](C)c1ccccc1)[C@@H](C)c1ccccc1)[C@@H](C)c1ccccc1 [Peptoid 67] (H-[Nlys][Gly(N(CH2)2(3-indolyl))][Gly(N(CH2)2(3-indolyl))][Nlys][Gly(N-CH2CH2-imidazol-4-yl)][Nspe][Nlys][Nspe][Nspe][Nlys][Nlys][Nspe]-NH2) |  |  |  |  |  |  | 
25 µM (≈ 46.4 µg/mL) | >25 µM | C[C@@H](c1ccccc1)N(CC(N)=O)C(=O)CN(CCCCN)C(=O)CN(CCCCN)C(=O)CN(C(=O)CN(C(=O)CN(CCCCN)C(=O)CN(CCc1c[nH]cn1)C(=O)CN(C(=O)CN(CCCCN)C(=O)CN(CCc1c[nH]c2ccccc12)C(=O)CN(CCc1c[nH]c2ccccc12)C(=O)CNCCCCN)[C@@H](C)c1ccccc1)[C@@H](C)c1ccccc1)[C@@H](C)c1ccccc1 [Peptoid 68] (H-[Nlys][Gly(N(CH2)2(3-indolyl))][Gly(N(CH2)2(3-indolyl))][Nlys][Nspe][Gly(N-CH2CH2-imidazol-4-yl)][Nlys][Nspe][Nspe][Nlys][Nlys][Nspe]-NH2) |  |  |  |  |  |  | 
25 µM (≈ 46.4 µg/mL) | 25 µM (≈ 46.4 µg/mL) | C[C@@H](c1ccccc1)N(CC(N)=O)C(=O)CN(CCCCN)C(=O)CN(CCCCN)C(=O)CN(C(=O)CN(CCc1c[nH]cn1)C(=O)CN(CCCCN)C(=O)CN(C(=O)CN(C(=O)CN(CCCCN)C(=O)CN(CCc1c[nH]c2ccccc12)C(=O)CN(CCc1c[nH]c2ccccc12)C(=O)CNCCCCN)[C@@H](C)c1ccccc1)[C@@H](C)c1ccccc1)[C@@H](C)c1ccccc1 [Peptoid 69] (H-[Nlys][Gly(N(CH2)2(3-indolyl))][Gly(N(CH2)2(3-indolyl))][Nlys][Nspe][Nspe][Nlys][Gly(N-CH2CH2-imidazol-4-yl)][Nspe][Nlys][Nlys][Nspe]-NH2) |  |  |  |  |  |  | 
>25 µM | >25 µM | C[C@@H](c1ccccc1)N(CC(N)=O)C(=O)CN(CCCCN)C(=O)CN(CCCCN)C(=O)CN(CCc1c[nH]cn1)C(=O)CN(C(=O)CN(CCCCN)C(=O)CN(C(=O)CN(C(=O)CN(CCCCN)C(=O)CN(CCc1c[nH]c2ccccc12)C(=O)CN(CCc1c[nH]c2ccccc12)C(=O)CNCCCCN)[C@@H](C)c1ccccc1)[C@@H](C)c1ccccc1)[C@@H](C)c1ccccc1 [Peptoid 70] (H-[Nlys][Gly(N(CH2)2(3-indolyl))][Gly(N(CH2)2(3-indolyl))][Nlys][Nspe][Nspe][Nlys][Nspe][Gly(N-CH2CH2-imidazol-4-yl)][Nlys][Nlys][Nspe]-NH2) |  |  |  |  |  |  | 
>25 µM | >25 µM | C[C@@H](c1ccccc1)N(CC(=O)N(CCCCN)CC(=O)N(CC(=O)N(CC(=O)N(CCCCN)CC(=O)N(CCCCN)CC(=O)N(CCc1c[nH]cn1)CC(N)=O)[C@@H](C)c1ccccc1)[C@@H](C)c1ccccc1)C(=O)CN(C(=O)CN(CCCCN)C(=O)CN(CCc1c[nH]c2ccccc12)C(=O)CN(CCc1c[nH]c2ccccc12)C(=O)CNCCCCN)[C@@H](C)c1ccccc1 [Peptoid 71] (H-[Nlys][Gly(N(CH2)2(3-indolyl))][Gly(N(CH2)2(3-indolyl))][Nlys][Nspe][Nspe][Nlys][Nspe][Nspe][Nlys][Nlys][Gly(N-CH2CH2-imidazol-4-yl)]-NH2) |  |  |  |  |  |  | 
